In ChEMBL document CHEMBL1909046, “DrugMatrix in vitro pharmacology data”:

Columns and labels:
[1] = target: T1, Alpha-2C adrenergic receptor (Homo sapiens, UniProt P18825); assay: DRUGMATRIX: Adrenergic Alpha-2C radioligand binding (ligand: [3H] MK-912); assay type: cell membranes, Sf9, Membrane; conditions: sf9; for IC50: call rule not given here
T1 sequence (P18825 whole entry): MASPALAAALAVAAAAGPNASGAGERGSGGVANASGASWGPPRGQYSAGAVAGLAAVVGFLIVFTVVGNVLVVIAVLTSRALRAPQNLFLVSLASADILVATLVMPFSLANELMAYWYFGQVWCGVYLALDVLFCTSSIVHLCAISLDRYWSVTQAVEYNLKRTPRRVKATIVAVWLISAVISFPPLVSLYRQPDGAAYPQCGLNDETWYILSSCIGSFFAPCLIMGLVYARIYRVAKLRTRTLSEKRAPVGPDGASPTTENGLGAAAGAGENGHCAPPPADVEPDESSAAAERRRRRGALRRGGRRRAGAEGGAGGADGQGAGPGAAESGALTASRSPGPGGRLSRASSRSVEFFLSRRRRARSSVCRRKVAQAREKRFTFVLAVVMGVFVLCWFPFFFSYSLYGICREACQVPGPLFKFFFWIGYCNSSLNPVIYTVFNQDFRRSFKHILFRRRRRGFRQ

[2] = target: T2, Type-2 angiotensin II receptor (Homo sapiens, UniProt P50052); assay: biochemical; assay type: cell-based, CHO-K1; conditions: cho-k1; note: in other assays of this panel Not Active means under 50% inhibition at 10 µM
T2 sequence (P50052 whole entry): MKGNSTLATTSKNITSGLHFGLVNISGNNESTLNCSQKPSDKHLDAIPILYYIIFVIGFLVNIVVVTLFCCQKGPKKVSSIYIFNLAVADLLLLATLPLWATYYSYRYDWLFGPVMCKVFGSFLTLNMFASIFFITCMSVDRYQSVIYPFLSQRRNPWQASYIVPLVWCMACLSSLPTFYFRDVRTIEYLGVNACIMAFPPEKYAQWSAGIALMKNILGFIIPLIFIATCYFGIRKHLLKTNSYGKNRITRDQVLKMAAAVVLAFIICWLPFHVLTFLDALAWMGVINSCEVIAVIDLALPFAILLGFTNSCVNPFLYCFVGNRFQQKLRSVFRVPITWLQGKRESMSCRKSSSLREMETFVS

[3] = target: C-C chemokine receptor type 2 (Homo sapiens, UniProt P41597); assay type: cell membranes, Membrane; conditions: cho-k1; note: in other assays of this panel Not Active means under 50% inhibition at 10 µM
Sequence of C-C chemokine receptor type 2 (P41597 whole entry): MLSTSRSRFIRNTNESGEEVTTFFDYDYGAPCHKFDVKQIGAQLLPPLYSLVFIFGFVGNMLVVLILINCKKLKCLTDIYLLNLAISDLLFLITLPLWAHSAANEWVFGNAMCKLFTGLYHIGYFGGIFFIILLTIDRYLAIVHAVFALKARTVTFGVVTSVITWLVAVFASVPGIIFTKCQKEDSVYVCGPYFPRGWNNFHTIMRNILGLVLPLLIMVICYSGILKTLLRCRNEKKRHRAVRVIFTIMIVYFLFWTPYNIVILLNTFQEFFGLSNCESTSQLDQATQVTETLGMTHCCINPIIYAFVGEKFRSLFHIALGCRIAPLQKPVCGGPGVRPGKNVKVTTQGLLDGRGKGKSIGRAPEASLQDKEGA

[4] = target: T3, Polyunsaturated fatty acid lipoxygenase ALOX15 (Oryctolagus cuniculus, UniProt P12530); assay: biochemical; assay type: tissue-based, Reticulocytes; conditions: reticulocytes;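 note: inhibition of 15-lipoxygenase enzyme activity measured with linoleic acid as the substrate; in other assays of this panel Not Active means under 50% inhibition at 10 µM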
T3 sequence (P12530 whole entry): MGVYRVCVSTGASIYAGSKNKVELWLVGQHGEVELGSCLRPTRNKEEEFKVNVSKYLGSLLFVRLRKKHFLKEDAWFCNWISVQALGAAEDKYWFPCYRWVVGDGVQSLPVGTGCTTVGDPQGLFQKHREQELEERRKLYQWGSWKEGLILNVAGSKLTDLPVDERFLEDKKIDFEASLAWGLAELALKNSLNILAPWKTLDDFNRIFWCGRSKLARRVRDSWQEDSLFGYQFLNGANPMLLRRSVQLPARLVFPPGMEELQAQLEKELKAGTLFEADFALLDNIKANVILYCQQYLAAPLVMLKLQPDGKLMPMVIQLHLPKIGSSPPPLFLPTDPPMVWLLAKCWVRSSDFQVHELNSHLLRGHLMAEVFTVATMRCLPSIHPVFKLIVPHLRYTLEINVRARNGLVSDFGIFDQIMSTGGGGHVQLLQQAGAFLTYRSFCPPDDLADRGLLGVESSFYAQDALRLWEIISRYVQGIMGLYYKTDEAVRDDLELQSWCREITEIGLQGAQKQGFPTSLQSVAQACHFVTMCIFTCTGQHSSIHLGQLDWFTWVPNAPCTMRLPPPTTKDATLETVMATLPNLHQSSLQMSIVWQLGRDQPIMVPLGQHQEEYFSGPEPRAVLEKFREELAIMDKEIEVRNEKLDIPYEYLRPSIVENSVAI

[5] = target: Protein kinase C alpha type (Homo sapiens, UniProt P17252); assay type: cell-based; conditions: sf9;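 note: inhibition of PKCalpha kinase activity measured in an enzyme assay with histone as the phosphorylation substrate; in other assays of this panel Not Active means under 50% inhibition at 10 µM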
Cytochrome P450 1A2 = target: T4, Cytochrome P450 1A2 (Homo sapiens, UniProt P05177); conditions: bti-tn-5b1-4; note: in other assays of this panel Not Active means under 50% inhibition at 10 µM
T4 sequence (P05177 whole entry): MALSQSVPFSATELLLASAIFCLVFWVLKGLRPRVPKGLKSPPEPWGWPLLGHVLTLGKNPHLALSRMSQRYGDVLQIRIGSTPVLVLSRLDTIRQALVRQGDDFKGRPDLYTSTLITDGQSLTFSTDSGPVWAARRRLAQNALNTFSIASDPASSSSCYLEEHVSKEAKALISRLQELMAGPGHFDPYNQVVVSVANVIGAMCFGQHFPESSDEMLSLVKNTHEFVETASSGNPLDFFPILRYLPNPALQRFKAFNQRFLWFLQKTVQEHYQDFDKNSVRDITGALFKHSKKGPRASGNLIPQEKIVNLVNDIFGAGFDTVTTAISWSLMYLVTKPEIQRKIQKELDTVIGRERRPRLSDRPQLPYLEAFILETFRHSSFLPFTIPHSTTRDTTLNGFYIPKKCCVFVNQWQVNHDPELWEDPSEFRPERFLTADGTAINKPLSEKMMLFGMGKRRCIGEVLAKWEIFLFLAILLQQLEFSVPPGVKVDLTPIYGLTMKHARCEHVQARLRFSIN

Estrogen receptor beta = Estrogen receptor beta (Homo sapiens, UniProt Q92731); conditions: sf9; note: in other assays of this panel Not Active means under 50% inhibition at 10 µM
Sequence of Estrogen receptor beta (Q92731 whole entry): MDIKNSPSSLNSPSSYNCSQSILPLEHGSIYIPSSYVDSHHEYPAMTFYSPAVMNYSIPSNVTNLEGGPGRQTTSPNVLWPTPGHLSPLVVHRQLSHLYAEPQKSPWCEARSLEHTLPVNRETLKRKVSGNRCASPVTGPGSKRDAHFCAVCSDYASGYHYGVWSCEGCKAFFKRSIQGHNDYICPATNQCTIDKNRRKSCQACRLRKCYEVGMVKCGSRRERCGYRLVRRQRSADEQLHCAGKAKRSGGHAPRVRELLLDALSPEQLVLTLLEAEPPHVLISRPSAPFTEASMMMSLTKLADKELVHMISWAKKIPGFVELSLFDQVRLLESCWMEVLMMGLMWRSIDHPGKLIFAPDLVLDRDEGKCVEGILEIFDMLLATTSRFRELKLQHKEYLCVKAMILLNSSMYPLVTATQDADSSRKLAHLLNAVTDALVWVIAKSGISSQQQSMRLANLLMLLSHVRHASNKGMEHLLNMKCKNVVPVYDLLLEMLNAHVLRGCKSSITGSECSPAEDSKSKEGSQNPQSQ

CC(=O)OCC(COC(C)=O)OC(C)=O [TRIACETIN]
Not Active: IC50 [1] | IC50 [2] | IC50 [3] | IC50 [4] | IC50 [5] | IC50 (Cytochrome P450 1A2) | Ki (Cytochrome P450 1A2) | IC50 (Estrogen receptor beta)

TRANSPLATIN
Not Active: IC50 [1] | Ki [1] | IC50 [2] | Ki [2] | IC50 [3] | Ki [3] | IC50 [4] | Ki [4] | IC50 [5] | Ki [5] | IC50 (Cytochrome P450 1A2) | Ki (Cytochrome P450 1A2) | IC50 (Estrogen receptor beta) | Ki (Estrogen receptor beta)

ZIRCONIUM(IV) CHLORIDE
Not Active: IC50 [1] | Ki [1] | IC50 [2] | Ki [2] | IC50 [3] | Ki [3] | IC50 [4] | Ki [4] | IC50 [5] | Ki [5] | IC50 (Cytochrome P450 1A2) | Ki (Cytochrome P450 1A2) | IC50 (Estrogen receptor beta) | Ki (Estrogen receptor beta)
